Target: T1, human DGAT2 (hDGAT2) (Homo sapiens, UniProt Q96PD7)
T1 construct: made in house; host or cells: Sf-9 insect cells (baculovirus infection); membrane fraction
T1 sequence (Q96PD7 1-388): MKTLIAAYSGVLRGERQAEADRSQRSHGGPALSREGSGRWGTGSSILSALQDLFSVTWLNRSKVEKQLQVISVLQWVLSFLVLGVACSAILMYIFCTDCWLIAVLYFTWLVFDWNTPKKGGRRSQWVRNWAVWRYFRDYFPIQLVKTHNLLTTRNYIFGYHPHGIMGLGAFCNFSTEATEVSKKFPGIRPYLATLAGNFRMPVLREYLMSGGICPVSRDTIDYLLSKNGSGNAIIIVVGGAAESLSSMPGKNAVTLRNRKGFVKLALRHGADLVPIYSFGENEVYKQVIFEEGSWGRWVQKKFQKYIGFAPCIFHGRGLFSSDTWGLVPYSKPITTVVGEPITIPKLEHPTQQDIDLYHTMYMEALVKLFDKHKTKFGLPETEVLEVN
Assay: DGAT2 enzymatic activity assay (LC/MS/MS detection of 13C18-triolein, Sf-9 membrane prep)
Type: biochemical
Conditions: hDGAT2 Sf-9 membrane, 25 μM diolein, 5 μM 13C oleoyl-CoA, rt
Experimental: Sf-9 insect cells were maintained in Grace's insect cell culture medium with 10% heated-inactivated fetal bovine serum, 1% Pluronic F-68 and 0.14 μg/ml Kanamycine sulfate at 27° C. in a shaker incubator. After infection with untagged baculovirus expressing human DGAT2 (hDGAT2) at multiplicity of infection (MOI) 3 for 48 hours, cells were harvested. Cell pellets were suspended in buffer containing 10 mM Tris-HCl pH 7.5, 1 mM EDTA, 250 mM sucrose and Complete Protease Inhibitor Cocktail (Sigma Aldrich), and sonicated on ice. Cell debris were removed by centrifugation at 2000×g for 15 minutes. Membrane fractions were isolated by ultracentrifugation (100,000×g), resuspended in the same buffer, and frozen (−80° C.) for later use. The protein concentration was determined with the Pierce™ BCA Protein Assay Kit (Thermo Fisher Scientific). Expression of protein levels was analyzed by immunoblotting with rabbit anti-DGAT2 antibody (Abcam, ab102831) and donkey anti-rabbit IgG H&L Alexa Fluor® 647 (Abcam, ab150075) followed by detection using Typhoon FLA9000 (GE Healthcare).
LC/MS/MS analyses were performed using Thermal Fisher's LX4-TSQ Vantage system. This system consists of an Agilent binary high-performance liquid chromatography (HPLC) pumps and a TSQ Vantage triple quadrupole MS/MS instrument. For each sample, 2 μL samples from the top organic layer of in-plate liquid-liquid extraction were injected onto a Thermo Betabasic C4 column (2.1 mm×20 mm, 5 μm particle size). The samples were then eluted using the following conditions; mobile phase: Isopropanol: acetonitrile/10 mM ammonium formate=50/35/15 (v/v/v), flow rate: 0.8 mL/min, temperature: 25° C. Data was acquired in positive mode using a heated electrospray ionization (HESI) interface. The operational parameters for the TSQ Vantage MS/MS instrument were a spray voltage of 3000 V, capillary temperature of 280° C., vaporizer temperature 400° C., sheath gas 45 arbitrary unit, Aux gas 10 arbitrary units, S-lens 165 and collision gas 1.0 mTorr. […] (SRM) chromatograms of ^13C18-triolein (Q1: 920.8>Q3:621.3) and internal standard ^13C21-triolein (Q1: 923.8>Q3:617.3) were collected for 33 sec. The peak area was integrated by Xcalibur Quan software. The ratio between the ^13C18triolein generated in the reaction and spiked in internal standard ^13C21-triolein was used to generate percentage inhibition and IC50 values. Compound percentage inhibition was calculated by the following formula: Inhibition %=1−[(compound response−low control)/(high control−low control)]×100%. Potent compounds were titrated and IC50 were calculated by 4 parameter sigmoidal curve fitting formula.
DGAT2 activity was determined by measuring the amount of enzymatic product ^13C18-triolein (^13C-1,2,3-Tri(cis-9-octadecenoyl)glycerol) using the membrane prep mentioned above. The assay was carried out in ABgene 384-well assay plates in a final volume of 25 μL at rt. The assay mixture contained the following: assay buffer (100 mM Tris.Cl, pH 7.0, 20 mM MgCl2, 5% ethanol), 25 μM of diolein, 5 μM of ^13C oleoyl-CoA and 8 ng/μL of DGAT2 membrane.

SMILES | IC50 [nM]
CC1(NC(=O)c2cnc3c(c2)c(C(C)(C)O)nn3-c2cccc(OC(F)(F)F)c2)CS(=O)(=O)C1 [Example 42, 3-(2-hydroxypropan-2-yl)-N-(3-methyl-1,1-dioxidothietan-3-yl)-1-(3-(trifluoromethoxy)phenyl)-1H-pyrazolo[3,4-b]pyridine-5-carboxamide] | 107
CC(C)Nc1nn(-c2cccc(OC(F)F)c2)c2ccc(C(=O)NC3(C)CS(=O)(=O)C3)cc12 [Example 50] | 41
C[C@]1(NC(=O)c2ccc3c(c2)c(S(C)(=O)=O)nn3-c2cccc(OC(F)F)c2)CCS(=O)(=O)C1 [Example 53, (S)-1-(3-(difluoromethoxy)phenyl)-N-(3-methyl-1,1-dioxidotetrahydrothiophen-3-yl)-3-(methylsulfonyl)-1H-indazole-5-carboxamide] | 543
Cn1nccc1-n1nc(-c2ccc(F)cc2)c2cc(C(=O)NC3(C)CS(=O)(=O)C3)ccc21 [Example 3, 3-(4-fluorophenyl)-N-(3-methyl-1,1-dioxo-thietan-3-yl)-1-(2-methylpyrazol-3-yl)indazole-5-carboxamide] | 389
C[C@]1(NC(=O)c2ccc3c(c2)c(-c2ccc(F)cc2)cn3-c2ccc(F)cc2)CCS(=O)(=O)C1 [Example 7, (S)-1,3-bis(4-fluorophenyl)-N-(3-methyl-1,1-dioxidotetrahydrothiophen-3-yl)-1H-indole-5-carboxamide] | 578
CC1(NC(=O)c2ccc3c(c2)c(C(O)C(F)(F)F)nn3-c2cccc(OC(F)F)c2)CS(=O)(=O)C1 (single isomer, unassigned) [Example 30b, 1-[3-(difluoromethoxy)phenyl]-N-(3-methyl-1,1-dioxo-thietan-3-yl)-3-(2,2,2-trifluoro-1-hydroxy-ethyl)indazole-5-carboxamide] | 113
CC1(NC(=O)c2cnc3c(c2)c(C(C)(C)O)nn3-c2cc(OC(F)F)ncc2F)CS(=O)(=O)C1 [Example 46, l-(2-(difluoromethoxy)-5-fluoropyridin-4-yl)-3-(2-hydroxypropan-2-yl)-N-(3-methyl-1,1-dioxidothietan-3-yl)-1H-pyrazolo[3,4-b]pyridine-5-carboxamide] | 31
CC(C)c1nn(-c2cncc(OC(F)F)c2)c2ccc(C(=O)NC3(C)CS(=O)(=O)C3)cc12 [Example 18] | 56
Cn1ccc(-c2nn(-c3cccc(OC(F)F)c3)c3ccc(C(=O)NC4(C)CS(=O)(=O)C4)cc23)n1 [Example 2, 1-(3-(difluoromethoxy)phenyl)-N-(3-methyl-1,1-dioxo-thietan-3-yl)-3-(l-methylpyrazol-3-yl)indazole-5-carboxamide] | 18
COCC(C)NC(=O)c1ccc2c(c1)c(-c1ccccc1Cl)cn2-c1ccc(F)cc1 (centres unmarked) [Example 10, 3-(2-chlorophenyl)-1-(4-fluorophenyl)-N-(1-methoxypropan-2-yl)-1H-indole-5-carboxamide] | 3510
CC(C)(CN1CCOCC1)NC(=O)c1ccc2c(c1)c(-c1ccccc1Cl)cn2-c1ccc(F)cc1 [Example 9, 3-(2-chlorophenyl)-1-(4-fluorophenyl)-N-(2-methyl-l-morpholinopropan-2-yl)-1H-indole-5-carboxamide] | 12300
CC(O)c1nn(-c2cccc(OC(F)F)c2)c2ncc(C(=O)NC3(C)CS(=O)(=O)C3)cc12 (single isomer, unassigned) [Example 38a, 1-(3-(difluoromethoxy)phenyl)-3-(l-hydroxyethyl)-N-(3-methyl-1,1-dioxidothietan-3-yl)-1H-pyrazolo[3,4-b]pyridine-5-carboxamide] | 38
C[C@]1(NC(=O)c2ccc3c(c2)c(N2CCC[C@H]2C(=O)O)nn3-c2cccc(OC(F)F)c2)CCS(=O)(=O)C1 [Example 49, (2S)-1-[1-[3-(difluoromethoxy)phenyl]-5-[[(3S)-3-methyl-1,1-dioxo-thiolan-3-yl]carbamoyl]indazol-3-yl]pyrrolidine-2-carboxylic acid] | 351
CC(C)Oc1nn(-c2cc(OC(F)F)ccc2F)c2ncc(C(=O)NC3(C)CS(=O)(=O)C3)cc12 [Example 55, 1-(5-(difluoromethoxy)-2-fluorophenyl)-3-isopropoxy-N-(3-methyl-1,1-dioxidothietan-3-yl)-1H-pyrazolo[3,4-b]pyridine-5-carboxamide] | 93
CC(C)c1nn(-c2cccc(OC(F)F)c2)c2cnc(C(=O)NC3(C)CS(=O)(=O)C3)cc12 [Example 13] | 77
CCC(O)c1nn(-c2cccc(OC(F)F)c2)c2ccc(C(=O)NC3(C)CS(=O)(=O)C3)cc12 (single isomer, unassigned) [Example 28a, 1-(3-(difluoromethoxy)phenyl)-3-(1-hydroxypropyl)-N-(3-methyl-1,1-dioxidothietan-3-yl)-1H-indazole-5-carboxamide] | 24
CC1(NC(=O)c2ccc3c(ccn3-c3cccc(OC(F)F)c3)c2)CS(=O)(=O)C1 [Example 8, 1-(3-(difluoromethoxy)phenyl)-N-(3-methyl-1,1-dioxidothietan-3-yl)-1H-indole-5-carboxamide] | 134
CC1(NC(=O)c2ccc3c(c2)c(C2(O)CCOCC2)nn3-c2cccc(OC(F)F)c2)CS(=O)(=O)C1 [Example 22] | 51
CCCc1nn(-c2cccc(OC(F)F)c2)c2ncc(C(=O)N[C@@]3(C)CCS(=O)(=O)C3)cc12 [Example 15, (S)-1-(3-(difluoromethoxy)phenyl)-N-(3-methyl-1,1-dioxidotetrahydrothiophen-3-yl)-3-propyl-1H-pyrazolo[3,4-b]pyridine-5-carboxamide] | 6.7
Cc1c(C(=O)NC2(C)CS(=O)(=O)C2)ccc2c1c(C(C)C)nn2-c1cccc(OC(F)F)c1 [Example 20] | 5
CC1(NC(=O)c2cnc3c(c2)c(C2CCOCC2)nn3-c2cccc(OC(F)F)c2)CS(=O)(=O)C1 [Example 21] | 7.1
C[C@]1(NC(=O)c2ccc3c(c2)c(N2CCOCC2)nn3-c2cccc(OC(F)F)c2)CCS(=O)(=O)C1 [Example 48, (S)-1-[3-(difluoromethoxy)phenyl]-N-(3-methyl-1,1-dioxo-thiolan-3-yl)-3-morpholino-indazole-5-carboxamide] | 375
CC1(NC(=O)c2ccc3c(c2)c(NS(C)(=O)=O)nn3-c2cccc(OC(F)F)c2)CS(=O)(=O)C1 [Example 51] | > 10000
CC1(NC(=O)c2ccc3c(c2)c(C(O)C2CC2)nn3-c2cccc(OC(F)F)c2)CS(=O)(=O)C1 (single isomer, unassigned) [Example 29b, 3-[cyclopropyl(hydroxy)methyl] - 1-[3-(difluoromethoxy)phenyl]-N-(3-methyl-1,1-dioxo-thietan-3-yl)indazole-5-carboxamide] | 205
CCC(O)c1nn(-c2cccc(OC(F)F)c2)c2ccc(C(=O)NC3(C)CS(=O)(=O)C3)cc12 (single isomer, unassigned) [Example 28b, 1-(3-(difluoromethoxy)phenyl)-3-(1-hydroxypropyl)-N-(3-methyl-1,1-dioxidothietan-3-yl)-1H-indazole-5-carboxamide] | 70
COc1ccc(-n2nc(NCCc3ccccc3)c3cc(C(=O)NCCCN(C)C)ccc32)cc1 [Example 52, N-(3-(dimethylamino)propyl)-1-(4-methoxyphenyl)-3-(phenethylamino)-1H-indazole-5-carboxamide] | 4320

— patent US20230174521A1, “NOVEL DIACYLGLYCERIDE O-ACYLTRANSFERASE 2 INHIBITORS” (Merck Sharp & Dohme LLC, priority 2020, published 2023)
